Like-named read-outs stand apart in the source and are kept apart here. Each block holds one molecule with its values, some of them ahead of it.
Columns and labels:
[1] = PK experiments in Wistar rats, plasma compound (I) after oral dosing of prodrugs; format: in vivo, rat; conditions: FIG. 1, doses equal to 287 μg/kg of compound (I)
Method: Plasma was placed on water-ice following collection. Final storage at approximately −70° C.
Mobile phase B: Acetonitrile. […] Flow rate 0.5 mL/min.
The rats had unrestricted access to the diet.
Mobile phase B: Acetonitrile+0.2% formic acid. […] Flow rate 0.3 mL/min.
Dosing and blood sampling for compound (Ic): Han Wistar rats were supplied by Envigo, UK. […] The rats received a standard laboratory diet Teklad 2014C. The rats had unrestricted access to the diet.

human 5-HT2B receptor = molecular target: T1, human 5-HT2B receptor (Homo sapiens, UniProt P41595); assay: 5-HT2B agonist activity assay, IP1 production (HTRF) in CHO cells; format: cell-based
T1 construct: host or cells: CHO
T1 sequence (P41595 whole entry): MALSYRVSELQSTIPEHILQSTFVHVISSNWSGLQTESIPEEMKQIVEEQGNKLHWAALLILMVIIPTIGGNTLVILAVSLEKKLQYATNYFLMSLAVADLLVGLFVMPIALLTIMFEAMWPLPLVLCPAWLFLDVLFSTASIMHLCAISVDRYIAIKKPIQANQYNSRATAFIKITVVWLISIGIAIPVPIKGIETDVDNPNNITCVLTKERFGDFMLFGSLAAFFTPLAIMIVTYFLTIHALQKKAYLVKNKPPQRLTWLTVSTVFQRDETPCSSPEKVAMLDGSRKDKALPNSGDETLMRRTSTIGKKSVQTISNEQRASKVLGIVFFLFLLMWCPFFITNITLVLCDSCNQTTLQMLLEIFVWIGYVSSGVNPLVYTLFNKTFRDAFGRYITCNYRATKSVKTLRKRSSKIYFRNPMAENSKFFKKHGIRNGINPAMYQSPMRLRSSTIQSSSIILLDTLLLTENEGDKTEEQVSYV
Method: Evaluation of the agonist activity of compounds (I), (Ia) and (Ib) at the human 5-HT2B receptor was performed by Eurofins/Cerep (France) measuring the compound effects on inositol monophosphate (IP1) production using the HTRF detection method. Briefly, the human 5-HT2B receptor was expressed in transfected CHO cells. The cells were suspended in a buffer containing 10 mM Hepes/NaOH (pH 7.4), 4.2 mM KCl, 146 mM NaCl, 1 mM CaCl2, 0.5 mM MgCl2, 5.5 mM glucose and 50 mM LiCl, then distributed in microplates at a density of 4100 cells/well and incubated for 30 minutes at 37° C. in the presence of buffer (basal control), test compound or reference agonist. For stimulated control measurement, separate assay wells contained 1 μM 5-HT. Following incubation, the cells were lysed and the fluorescence acceptor (fluorophen D2-labeled IP1) and fluorescence donor (anti-IP1 antibody labeled with europium cryptate) were added. After 60 minutes at room temperature, the fluorescence transfer was measured at lambda(Ex) 337 nm and lambda(Em) 620 and 665 nm using a microplate reader (Rubystar, BMG). The IP1 concentration was determined by dividing the signal measured at 665 nm by that measured at 620 nm (ratio). The results were expressed as a percent of the control response to 1 μM 5-HT. […]

[2] = Liu et al., Bioorganic Med. Chem. (2008); rats; cited from earlier work
[3] = Oral dosing of compound (Id) in minipigs; format: in vivo, minipig
[4] = Conversion of (Id) to (I) in fresh human blood; format: in vitro ADME; conditions: 1 μg/mL, 37° C., 0-60 minutes
Method: (§1) Conversion of (Id) in human blood (average of 3 donors) and rat blood (average of 45 donors) to (I) was shown in fresh blood at 37° C. spiked with 1 μg/mL of (Id). (I) was measured at 0, 5, 15, 30 and 60 minutes in isolated plasma. Analysis method and Instrumentation as described in Examples 9 and 10 below in the section “Instrumentation used for analysis of compound (l) from dosing of compounds (Ic) and (Id).”

rat locomotor activity = assay: Rat locomotor activity (hyperactivity) assay, open field, with PK/PD; format: in vivo
Method: Mass spectrometer (UPCLC-MS/MS) Waters Acquity I-Class-Waters Xevo TQ-S. Analytical column Acquity HSS T3 C18 50×2.1 mm, 1.8 μm. Mobile phase A: 10 mM NH4—Formate 0.2% formic acid:Acetonitril (95:5). Mobile phase B: 10 mM NH4—Formate 0.2% formic acid:Acetonitril (5:95). Gradient run from 95/5% to 5/95% in 2.40 minutes. Flow rate 0.3 mL/min. MRM detection of test items and the added analytical standards.
Animals for the study were as described in Example 10. Additionally, rats were administered a single dose of apomorphine subcutaneously.
In total, 206 male CD rats (Charles River, Germany) weighing 200-250 grams (165-190 grams upon arrival) were used in the study. Animals were housed at a standard temperature (22±1° C.) and in a light-controlled environment (lights on from 7 am to […]) with ad libitum access to food and water. The experiment described below was performed in accordance with the standard operating procedures of Charles River Discovery Research Services Finland Ltd. and in accordance with the national Animal Experiment Board of Finland (Eläinkoelautakunta, ELLA) authority on animal testing.
The test device is a square Plexiglass-arena (measuring 40×40×40 cm), in which the movement paths of the rats are recorded by an activity monitor (Med. Associates Inc.). Before the test period is initiated, rats are habituated to their test cage for 60 minutes. Upon completion of habituation, animals were treated with either compound or vehicle and placed back into the open field apparatus. The main test parameter measured is ambulatory distance (recorded in 5-minute segments). Overall time of measurement after receiving initial treatment was 360 minutes. Total follow up period in the study was 420 min, including 60 min of habituation.

[5] = pKa values / major species of ionization; format: physicochemical
human hepatocytes = assay: Conversion of compound (Id) to compound (I) in human hepatocytes; format: in vitro ADME; conditions: 1 μg/mL, 37° C., 0.25-60 minutes
Method: (§2) The cell concentration at incubation was 1×10^6 viable cells/mL. The incubations were performed in glass tubes at 37° C. with a total incubation volume of 3.5 mL and with duplicate incubations for each test item. The 3.5 mL of hepatocyte suspension was equilibrated for 10 minutes in a water bath set to 37° C. where after the incubations were initiated by adding 3.5 μL of a stock solution of the test item in DMSO (Dimethyl sulfoxide) and gently inverting the tubes. The final solvent concentration in the incubations was 0.1% DMSO. Samples of 600 μL were withdrawn from the incubations at the pre-determined time points of 0.25, 5, 15, 30 and 60 minutes after ensuring homogeneity of hepatocyte suspensions. The withdrawn volume was added to 1 mL Nunc cryo tubes on wet ice containing 60 μL of ice-cold ascorbic acid (100 mg/mL) and 30 μL of ice cold 100 mM saccharic acid 1,4-lactone in 0.5 M citric acid. The tubes were mixed and 35 μL of a solution of ice cold 20% formic acid was added. The tubes were mixed thoroughly and stored at −80° C. awaiting analysis.

[6] = Conversion of (Id) to (I) in fresh rat blood; format: in vitro ADME; conditions: 1 μg/mL, 37° C., 0-60 minutes
Method: as §1

rat hepatocytes = assay: Conversion of compound (Id) to compound (I) in rat hepatocytes; format: in vitro ADME; conditions: 1 μg/mL, 37° C., 0.25-60 minutes
Method: as §2

[7] = man, after oral dosing; cited from earlier work

SMILES: CCCN1CCC[C@@H]2CC3=C(CCCC3=O)C[C@H]21 [(Ia)]
Plasma profile of compound (I) after oral dosing, in words [1]: early and high peak concentrations
5-HT2B agonist effect at single concentration (human 5-HT2B receptor; @ 30 μM, percent of control response to 1 μM 5-HT): 58% @ 30 μM

SMILES: CCCN1CCC[C@@H]2Cc3c(ccc(OC(=O)C(C)(C)C)c3OC(=O)C(C)(C)C)C[C@H]21 [(Ic)]
Plasma profile of compound (I) after oral dosing, in words [1]: extremely low
5-HT2B agonist effect at single concentration (human 5-HT2B receptor; @ 10 μM): −5% @ 10 μM

SMILES: CCCN1CCC[C@@H]2Cc3c(ccc(O)c3O)C[C@H]21 [Compound (I), (4aR,10aR)-1-Propyl-1,2,3,4,4a,5,10,10a-octahydro-benzo[g]quinoline-6,7-diol]
Oral bioavailability, in words [2]: low oral bioavailability

Conversion to compound (I) [4]: time dependent conversion
pKa ([5]; anion / dianion boundary pH, read-out: pKa (third), boundary between major species of ionization): 10.1
pKa ([5]; cation / zwitterion boundary pH, read-out: pKa (first), boundary between major species of ionization): 2.8
pKa ([5]; zwitterion / anion boundary pH, read-out: pKa (second), boundary between major species of ionization): 8.8
Conversion to compound (I) (human hepatocytes): time dependent conversion
Conversion to compound (I) [6]: time dependent conversion
Conversion to compound (I) (rat hepatocytes): time dependent conversion
SMILES: CCCN1CCC[C@@H]2Cc3c(ccc(O)c3O[C@@H]3O[C@H](C(=O)O)[C@@H](O)[C@H](O)[C@H]3O)C[C@H]21 [Compound (Id), (2S,3S,4S,5R,6S)-3,4,5-trihydroxy-6-(((4aR,10aR)-7-hydroxy-1-propyl-1,2,3,4,4a,5,10,10a-octahydrobenzo[g]quinolin-6-yl)oxy)tetrahydro-2H-pyran-2-carboxylic acid]
In vivo conversion to compound (I) [3]: In vivo conversion of compound (Id) to compound (I) has also been observed
Plasma profile of compound (I) after oral dosing, in words [1]: slower absorption rate avoiding rapid peak concentrations accompanied by a sustained exposure
Relationship of behavioral effect and plasma concentration (rat locomotor activity; (Id) 100 μg/kg p.o. (FIG. 4), apomorphine 3 mg/kg s.c. (FIG. 5)): correlate with the plasma concentrations of compound (I)
Duration of locomotor effect, in words (rat locomotor activity; (Id) 10 to 300 μg/kg p.o., recording to the 415-minute time point): lasting until the end of recording
Total distance travelled, in words (rat locomotor activity; FIG. 3, (Id) 10, 30, 100 or 300 μg/kg p.o., apomorphine 3 mg/kg s.c., pramipexole 0.3 mg/kg s.c., vs vehicle): significantly increased activity

SMILES: CCCc1cc2c(s1)CN[C@@H]1CCc3cc(OC(C)=O)c(OC(C)=O)cc3[C@@H]21 [adrogolide]
Oral bioavailability [7]: ~4%

Source: patent publication US12421271B2, “Solid forms of (2S,3S,4S,5R,6S)-3,4,5-trihydroxy-6-(((4AR, 10AR)-7-hydroxy-1-propyl-1,2,3,4,4A,5,10,10A-octahydrobenzo[g]quinolin-6-yl)oxy)tetrahydro-2H-pyran-2-carboxylic acid” (H. Lundbeck A/S, priority 2019, dated 2025)
